# Source: patent US20260364213A1, “RADIOLABELED COMPOUNDS OF TRIMETHOPRIM AND USES THEREOF” (THE TRUSTEES OF THE UNIVERSITY OF PENNSYLVANIA, priority 2023, published 2026)
# Values joined by “and” are separate entries in the source; they are usually repeats but may differ in a detail not shown here. Identical values can stand only once. “Also recorded” adds a separate entry of the source. Like-named read-outs stand apart in the source and are kept apart here.
# Key:
# hamster fibroblasts = conditions: predominantly nuclear lead-212 vs predominantly cytoplasmic polonium-210; cited from earlier work
# [1] = In vitro stability in RPMI 1640 medium; format: physicochemical; conditions: 37 °C, up to 6 hours, radio-HPLC
# Protocol: The specific activity of [^211At]At-TMP and [^125I]I-TMP was determined by comparison of radioactivity to the area under 288-nm ultraviolet light peak on radio-HPLC. The in vitro stability of [^211At]At-TMP was examined with incubation in Roswell Park Memorial Institute (RPMI) 1640 medium at 37 °C for up to 6 hours, followed by radio-HPLC analysis.
# eDHFR-YFP = biological target: T1, eDHFR-YFP (Escherichia coli, UniProt P0ABQ4); assay: Radioligand binding to eDHFR-YFP expressing cells; parameters: species or system E. coli
# T1 sequence (P0ABQ4 1-159): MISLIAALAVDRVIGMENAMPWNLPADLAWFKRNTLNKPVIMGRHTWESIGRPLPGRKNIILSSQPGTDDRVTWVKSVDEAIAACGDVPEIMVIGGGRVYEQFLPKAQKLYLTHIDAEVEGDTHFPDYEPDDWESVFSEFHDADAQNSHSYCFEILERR
# Protocol: Due to the high specific activity of [^211At]At-TMP that limits its working concentration to pM range, [^125I]I-TMP was used for saturation binding studies to determine Bmax.
# eDHFR-YFP-positive I45 and SKOV3 cells were plated on 96-well plates (Corning #9102) at the density of 25,000 cells/well and 40,000 cells/well, respectively, in complete growth media 24 hours before the assay. […] After incubation at 37 °C for 90 minutes, the wells were aspirated and washed twice with ice-cold PBS. The radioactivity in each well was measured with a Perkin Elmer Wizard gamma counter. The assay was performed three times in triplicates. […] See, Swillens, Molecular pharmacology. 1995; 47(6):1197-203. The corresponding EC50 values were plotted against the receptor concentration/2 to determine the Kd. See, Hulme, British journal of pharmacology. 2010; 161(6):1219-37. The Bmax values were correlated with the total YFP florescence from the wells, with a correction factor of 2.5 and 2.2 for membrane-bound eDHFR-YFP in I45 and SKOV3, respectively, in order to account for decreased fluorescence per molecule from addition of the membrane localization signal to YFP. See, Wu, Science. 2005; 310(5746):310-4; and Bakholdina, Molecules. 2021; 26(13).
# For determination of the Kd of [^211At]At-TMP, the binding assay protocol was repeated in I45 and SKOV3 cells expressing cytoplasmic eDHFR-YFP, using 150 μL of 0.06-60 nM [^125I]I-TMP±10 μM TMP for half of each 96-well plate and 50-260 μL of […] [^211At]At-TMP±10 μM TMP for the remaining half. The Bmax of each plate determined from [^125I]I-TMP binding was divided by the assay volumes used for [^211At]At-TMP to calculate the total receptor concentration ([RT]) in each [^211At]At-TMP well. The ligand depletion (δ) in each [^211At]At-TMP well was obtained by dividing the bound radioactivity by total added radioactivity. The assay was performed four times in triplicates. As derived in Supplemental Methods 1, δ^−1 was plotted against [RT]^−1 to determine the Kd as the slope of the linear best-fit line.
# Supplemental Method 1. Measurement of the dissociation constant (Kd) of [^211At]At-TMP binding to eDHFR under non-saturating, ligand-depleting conditions. When [Ligand]<<Kd, ligand depletion (6) at equilibrium is
# where [R] is the free receptor concentration and [RT]is the total receptor concentration. Since 6 is non-zero, taking the reciprocal of both sides of the equation yields
# [formula] • If a δ^−1 vs. [RT]^−1 graph where y=δ^−1 and x=[RT]^−1 is plot,
# Therefore, the slope of the linear best-fit line represents the Kd and the y-intercept is 1.
# eDHFR = biological target: T2, eDHFR (Escherichia coli, UniProt P0ABQ4); conditions: HEK293T-eDHFR-YFP vs HEK 293 WT; 0.037 MBq, 1 hour; 60 min
# T2 sequence (P0ABQ4 1-159): T1 sequence (P0ABQ4 1-159)
# I45 cells = assay: Cytotoxicity in I45 cells with subcellular eDHFR-YFP; format: cell-based, human; conditions: for RBE: ref. cytoplasmic
# Protocol: (§1) Wild-type and eDHFR-YFP-expressing I45 and SKOV3 cells were seeded on 96-well plates (Corning #3603) at the density of 1,000 cells/well and 3,000 cells/well, respectively, in complete growth media 24 hours before the assay. The following five treatment conditions were applied in complete growth media: 200 μCi/mL ~15 μCi/mL [^211At]At-TMP, 120 μCi/mL-15 μCi/mL free ^211At, 120 μCi/mL-15 μCi/mL [^211At]At-TMP+10 μM TMP, 10 nM-1 μM doxorubicin, and 40 μM−1 mM TMP. After 72 hours of incubation, the surviving fraction of the cells was quantified using CellTiter-Glo (Promega #G9243). See, Makvandi, Molecular cancer therapeutics. 2019; 18(7):1195-204. The assay was performed three times in triplicates. The effective concentration for 50% cell death (EC50) was determined for each treatment condition by fitting the surviving fractions into a non-linear sigmoidal dose-response curve. For eDHFR-YFP-positive cells, the [^211At]At-TMP treatment concentrations were converted to the number of ^211At decays/cell, using the median number of receptors/cell (obtained from YFP fluorescence) and Kd of [^211At]At-TMP. See, Lee, Journal of nuclear medicine. 2020; 61(6):850-6.
# (§2) For comparison to the nuclear S-values, the observed cytotoxicity per ^211At decay was also expressed relative to cytoplasmic eDHFR-YFP. […] Finally, the ratio between the isolated cytotoxicity and nuclear S-value was calculated as the RBE for eDHFR-YFP in each subcellular compartment.
# (§3) Supplemental Method 2. Calculation of the relative cytotoxicity of ^211At decay in different subcellular compartments. • By the linear-quadratic model for targeted alpha therapy,
# (§4) (Survival)=e^−αD-βD^2≈e^−αD • Let N=number of ^211At decays/cell at EC50. Then, the following is obtained:
# (§5) ln(0.5)=−αD=−TN • where T is the product of S-value and α, representing cytotoxicity per decay. Let F=fraction of eDHFR in each subcellular compartment. Then, the following can be written:
# (§6) [formula] • where capital letters denote the microscopically observed subcellular location of eDHFR and lowercase letters denote the genetically targeted location of eDHFR.
# (§7) The measured values of F (FIG. 19) and N (FIG. 28C) were then used to solve for T. DNA-targeted eDHFR observed in the nucleus is assumed to be 100% DNA-bound, and for SKOV3, Nc≈Nm is applied based on the lack of significant difference in EC50.
# (§8) Finally, the T values are normalized with Tc to obtain the relative cytotoxicity of ^211At decay in each subcellular compartment compared to the cytoplasm.
# SKOV3 cells = assay: Cytotoxicity in SKOV3 cells with subcellular eDHFR-YFP; format: cell-based, human; conditions: for RBE: ref. cytoplasmic
# Protocol: as §1, §2, §3, §4, §5, §6, §7, §8
# I45 and SKOV3 cells = assay: Cytotoxicity in wild-type and eDHFR-YFP-expressing I45 and SKOV3 cells; format: cell-based, human
# Protocol: After 72 hours of incubation, the surviving fraction of the cells was quantified using CellTiter-Glo (Promega #G9243). See, Makvandi, Molecular cancer therapeutics. […] The assay was performed three times in triplicates. […] See, Lee, Journal of nuclear medicine.
molecule,measurement,setting,value
lead-212,RBE relative to gamma irradiation,hamster fibroblasts,4
COc1cc(Cc2cnc(N)nc2N)cc([211At])c1OC [[^211At]At-TMP],in vitro stability in aqueous media,[1],stability of [^211At]TMP in aqueous media for up to 6 hours
"COc1cc(Cc2cnc(N)nc2N)cc([125I])c1OC [[^125I]mI-TMP, 5-(3-iodo-4,5-dimethoxybenzyl)pyrimidine-2,4-diamine]",Kd,"eDHFR-YFP; I45 cells, read-out: Kd",0.65 ± 0.11 nM
same,Kd,"eDHFR-YFP; SKOV3 cells, read-out: Kd",0.13 ± 0.17 nM
same,uptake of the radiotracer in eDHFR+ cells relative to WT cells,eDHFR,~ 50 fold and ~ 30 fold
COc1cc(Cc2cnc(N)nc2N)cc([At])c1OC [[^211At]At-TMP],in vitro stability in aqueous media,[1],stable at 37 °C in aqueous media
same,binding affinity compared to [^125I]I-TMP,eDHFR-YFP; I45 and SKOV3 cells,lower binding affinity
same,Kd,"eDHFR-YFP; Kd, I45 and SKOV3 cells",2.5 to 4.8 nM
same,Kd,"eDHFR-YFP; Kd, I45 cells",4.8 ± 0.1 nM
same,Kd,"eDHFR-YFP; Kd, SKOV3 cells",2.5 ± 0.2 nM
same,relative cytotoxicity with reference to cytoplasmic eDHFR,"I45 cells; I45, DNA-bound",10
same,RBE,"I45 cells; I45, DNA-bound",3.1
same,"cytotoxicity, membrane-bound compared to cytoplasmic eDHFR","I45 cells; I45, P=0.005",higher cytotoxicity compared to cytoplasmic eDHFR
same,relative cytotoxicity with reference to cytoplasmic eDHFR,"I45 cells; I45, membrane-bound",2.8
same,RBE,"I45 cells; I45, membrane-bound",3.5
same,relative cytotoxicity with reference to cytoplasmic eDHFR,"I45 cells; I45, nuclear",7.4
same,RBE,"I45 cells; I45, nuclear",2.3
same,relative cytotoxicity with reference to cytoplasmic eDHFR,"SKOV3 cells; SKOV3, DNA-bound",13
same,RBE,"SKOV3 cells; SKOV3, DNA-bound",3.2
same,relative cytotoxicity with reference to cytoplasmic eDHFR,"SKOV3 cells; SKOV3, membrane-bound",1.0
same,RBE,"SKOV3 cells; SKOV3, membrane-bound",1.4
same,relative cytotoxicity with reference to cytoplasmic eDHFR,"SKOV3 cells; SKOV3, nuclear",8.5
same,RBE,"SKOV3 cells; SKOV3, nuclear",2.0
same,cytotoxicity in eDHFR-expressing compared to wild-type cells,I45 and SKOV3 cells; 72 h,significantly higher cytotoxicity
same,"cytotoxicity per bound decays/cell, DNA-bound and nuclear eDHFR","I45 and SKOV3 cells; DNA-bound P=0.017 I45, P=0.012 SKOV3, nuclear P=0.0006 I45, P=0.004 SKOV3","the highest cytotoxicity was observed with DNA-bound eDHFR (P=0.017 in I45 and P=0.012 in SKOV3), followed by nuclear eDHFR"
same,pharmacologic cytotoxicity,I45 and SKOV3 cells; up to 34 μM (so in the source),absence of pharmacologic cytotoxicity
same,"difference in cytotoxicity wild-type vs eDHFR-expressing, blocked",I45 and SKOV3 cells; with 10 μM cold TMP,disappearance; also recorded: comparable across the wild-type and eDHFR-YFP-expressing cells
